Data set [1] relates to S. aureus. Type of data set: cell-based, Staphylococcus aureus. In a few lines:
(§1)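 Broth microdilution adapted from CLSI in Mueller-Hinton broth or cation-adjusted MHB. Overnight 37 °C cultures were regrown 3-4 h, then added to serially diluted peptide at a final 5×10^5 CFU/ml. After 20-24 h at 37 °C, MIC was the lowest peptide concentration with no visible growth.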

Data set [2] concerns A. baumannii. It is filed as cell-based, Acinetobacter baumannii. In a few lines:
as §1

Data set [3] in a line: in vitro. It is filed as cell-based. The conditions noted are these: human, Inhibitory Concentration at 50% Cytotoxicity (IC50) Human Liver Cells (HepG2). The essentials:
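HepG2 cells in EMEM with 10% FBS, allowed 4 h to attach, then exposed to serial dilutions of StAMPs (from a 5 mg/mL water stock) or vehicle. After 48 h at 37 °C, viability read by CellTiter-Glo luminescence.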

Data set [4] deals with E. coli. Type of data set: cell-based, Escherichia coli. The essentials: as §1
Data set [5] deals with K. pneumoniae. It is filed as cell-based, Klebsiella pneumoniae. The essentials: as §1
In data set [6] the test system is P. aeruginosa. It is filed as cell-based, Pseudomonas aeruginosa. In a few lines:
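Broth microdilution adapted from CLSI in MHB or cation-adjusted MHB; log-phase P. aeruginosa at 5×10^5 CFU/ml final with serially diluted stapled peptides. Incubated 20-24 h at 37 °C; MIC is the lowest concentration without visible growth.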

Converted amounts (≈) assume the structure as drawn. Positions of bridges follow the written chain, without caps; N, C: chain ends. Non-standard residues stand in square brackets, D forms with d. Residues, ends and D or L forms follow the SMILES beside them. S5 = C=CCCC[C@](C)(N)C(=O)O; Dab = NCC[C@H](N)C(=O)O; Dap = NC[C@H](N)C(=O)O

With `CC(C)[C@@H]1NC(=O)[C@@](C)(NC(=O)[C@H](C)NC(=O)[C@H](CCCCN)NC(=O)CNC(=O)[C@H](Cc2ccccc2)NC(=O)[C@H](CCCCN)NC(=O)[C@H](CCCCN)NC(=O)[C@H](CCCCN)NC(=O)[C@H](CCCCN)NC(=O)[C@H](CCCCN)NC(=O)[C@]2(C)CCCC=CCCC[C@](C)(NC(=O)CN)C(=O)NCC(=O)N[C@@H](CCCCN)C(=O)N[C@@H](Cc3ccccc3)C(=O)N2)CCCC=CCCC[C@@](C)(C(=O)N[C@@H](CO)C(=O)N[C@@H](CCCCN)C(=O)N[C@@H](CCCCN)C(=O)NCC(=O)NCC(=O)N[C@@H](CCC(=O)O)C(N)=O)NC(=O)[C@H](CCC(=O)O)NC(=O)CNC1=O` [compound 94] (H-G[S5]GKF[S5]KKKKKFGKA[S5]VGE[S5]SKKGGE-NH2; staple 2-6, 16-20), the “Minimum Inhibitory Concentration (MIC) S. aureus” value in data set [1] is 64 µg/mL. For the same compound, the “Minimum Inhibitory Concentration (MIC) A. baumannii” value in data set [2] came to 4 µg/mL. Moreover, the 50% inhibitory concentration (IC50) (as a rule, the midpoint of a concentration-inhibition curve) at 48 hours in data set [3] is > 200 µg/mL. Also, the “Minimum Inhibitory Concentration (MIC) E. coli” value in data set [4] came out at 8 µg/mL. Moreover, the “Minimum Inhibitory Concentration (MIC) K. pneumoniae” value in data set [5] is >64 µg/mL. Also, the “Minimum Inhibitory Concentration (MIC) P. aeruginosa” value in data set [6] came to 2 µg/mL.

For the compound `CC(C)[C@@H]1NC(=O)[C@@](C)(NC(=O)[C@H](C)NC(=O)[C@H](CCCCN)NC(=O)CNC(=O)[C@H](Cc2ccccc2)NC(=O)[C@H](CCCCN)NC(=O)[C@H](CCCCN)NC(=O)[C@H](CCCCN)NC(=O)[C@H](CO)NC(=O)[C@H](CCCCN)NC(=O)[C@]2(C)CCCC=CCCC[C@](C)(NC(=O)CN)C(=O)NCC(=O)N[C@@H](CCCCN)C(=O)N[C@@H](Cc3ccccc3)C(=O)N2)CCCC=CCCC[C@@](C)(C(=O)N[C@@H](C)C(=O)N[C@@H](CCCCN)C(=O)N[C@@H](CCCCN)C(=O)NCC(=O)NCC(=O)N[C@@H](CCC(=O)O)C(N)=O)NC(=O)[C@H](CCC(=O)O)NC(=O)CNC1=O` [compound 90] (H-G[S5]GKF[S5]KSKKKFGKA[S5]VGE[S5]AKKGGE-NH2; staple 2-6, 16-20), the “Minimum Inhibitory Concentration (MIC) S. aureus” value in data set [1] worked out at 64 µg/mL. The “Minimum Inhibitory Concentration (MIC) A. baumannii” value in data set [2] was 2 µg/mL. Further, the concentration for half-maximal inhibition (IC50) at 48 hours in data set [3] is > 200 µg/mL. Moreover, the “Minimum Inhibitory Concentration (MIC) E. coli” value in data set [4] was 4 µg/mL. For the same compound, the “Minimum Inhibitory Concentration (MIC) K. pneumoniae” value in data set [5] amounted to 32 µg/mL. The “Minimum Inhibitory Concentration (MIC) P. aeruginosa” value in data set [6] came to 2 µg/mL.

For the compound `CC(C)[C@@H]1NC(=O)[C@@](C)(NC(=O)[C@H](C)NC(=O)[C@H](CCCCN)NC(=O)CNC(=O)[C@H](Cc2ccccc2)NC(=O)[C@H](CCCCN)NC(=O)[C@H](CCCCN)NC(=O)[C@H](CCCCN)NC(=O)[C@H](CCCCN)NC(=O)[C@H](CN)NC(=O)[C@]2(C)CCCC=CCCC[C@](C)(NC(=O)CN)C(=O)NCC(=O)N[C@@H](CCCCN)C(=O)N[C@@H](Cc3ccccc3)C(=O)N2)CCCC=CCCC[C@@](C)(C(=O)N[C@@H](C)C(=O)N[C@@H](CCCCN)C(=O)N[C@@H](CCCCN)C(=O)NCC(=O)NCC(=O)N[C@@H](CCC(=O)O)C(N)=O)NC(=O)[C@H](CCC(=O)O)NC(=O)CNC1=O` [compound 80] (H-G[S5]GKF[S5][Dap]KKKKFGKA[S5]VGE[S5]AKKGGE-NH2; staple 2-6, 16-20), the “Minimum Inhibitory Concentration (MIC) S. aureus” value in data set [1] was >64 µg/mL. Also, the “Minimum Inhibitory Concentration (MIC) A. baumannii” value in data set [2] was 8 µg/mL. Besides, in data set [3], the IC50 at 48 hours is > 200 µg/mL. Further, in data set [4], the “Minimum Inhibitory Concentration (MIC) E. coli” value was determined as 8 µg/mL. In addition, the “Minimum Inhibitory Concentration (MIC) K. pneumoniae” value in data set [5] was >64 µg/mL. For the same compound, in data set [6], the “Minimum Inhibitory Concentration (MIC) P. aeruginosa” value is 4 µg/mL.

On to `CC(C)[C@@H]1NC(=O)[C@@](C)(NC(=O)[C@H](C)NC(=O)[C@H](CCCCN)NC(=O)CNC(=O)[C@H](Cc2ccccc2)NC(=O)[C@H](CCCCN)NC(=O)[C@H](CCCCN)NC(=O)[C@H](CCCCN)NC(=O)[C@H](CCCCN)NC(=O)[C@H](CN)NC(=O)[C@]2(C)CCCC=CCCC[C@](C)(NC(=O)CN)C(=O)NCC(=O)N[C@@H](CCCCN)C(=O)N[C@@H](Cc3ccccc3)C(=O)N2)CCCC=CCCC[C@@](C)(C(=O)N[C@@H](C)C(=O)N[C@@H](CCCCN)C(=O)N[C@@H](CCCCN)C(N)=O)NC(=O)[C@H](CCC(=O)O)NC(=O)CNC1=O` [compound 46] (H-G[S5]GKF[S5][Dap]KKKKFGKA[S5]VGE[S5]AKK-NH2; staple 2-6, 16-20), for which, in data set [1], the “Minimum Inhibitory Concentration (MIC) S. aureus” value turned out to be 64 µg/mL. The “Minimum Inhibitory Concentration (MIC) A. baumannii” value in data set [2] came to 2 µg/mL. The IC50 at 48 hours in data set [3] is 299 µg/mL (≈ 119 µM). Also, the “Minimum Inhibitory Concentration (MIC) E. coli” value in data set [4] amounted to 2 µg/mL. Besides, the “Minimum Inhibitory Concentration (MIC) K. pneumoniae” value in data set [5] is 8 µg/mL. Further, the “Minimum Inhibitory Concentration (MIC) P. aeruginosa” value in data set [6] is 4 µg/mL.

Regarding `CC(C)[C@@H]1NC(=O)[C@@](C)(NC(=O)[C@H](C)NC(=O)[C@H](CCCCN)NC(=O)CNC(=O)[C@H](Cc2ccccc2)NC(=O)[C@H](CCCCN)NC(=O)[C@H](CCCCN)NC(=O)[C@H](CN)NC(=O)[C@H](CCCCN)NC(=O)[C@H](CN)NC(=O)[C@]2(C)CCCC=CCCC[C@](C)(NC(=O)CN)C(=O)NCC(=O)N[C@@H](CCCCN)C(=O)N[C@@H](Cc3ccccc3)C(=O)N2)CCCC=CCCC[C@@](C)(C(=O)N[C@@H](C)C(=O)N[C@@H](CCCCN)C(=O)N[C@@H](CCCCN)C(N)=O)NC(=O)[C@H](CCC(=O)O)NC(=O)CNC1=O` [compound 82] (H-G[S5]GKF[S5][Dap]K[Dap]KKFGKA[S5]VGE[S5]AKK-NH2; staple 2-6, 16-20), the “Minimum Inhibitory Concentration (MIC) S. aureus” value in data set [1] was >64 µg/mL. In data set [2], the “Minimum Inhibitory Concentration (MIC) A. baumannii” value worked out at 1 µg/mL. The compound further registered an IC50 at 48 hours in data set [3] of 190 µg/mL (≈ 76.6 µM). Moreover, the “Minimum Inhibitory Concentration (MIC) E. coli” value in data set [4] turned out to be 4 µg/mL. The “Minimum Inhibitory Concentration (MIC) K. pneumoniae” value in data set [5] is 64 µg/mL. Further, the “Minimum Inhibitory Concentration (MIC) P. aeruginosa” value in data set [6] came to 2 µg/mL.

For the compound `CC(C)[C@@H]1NC(=O)[C@@](C)(NC(=O)[C@H](C)NC(=O)[C@H](CCCCN)NC(=O)CNC(=O)[C@H](Cc2ccccc2)NC(=O)[C@H](CCCCN)NC(=O)[C@H](CCCCN)NC(=O)[C@H](CCCCN)NC(=O)[C@H](CCCCN)NC(=O)[C@H](CCCCN)NC(=O)[C@]2(C)CCCC=CCCC[C@](C)(NC(=O)CN)C(=O)NCC(=O)N[C@@H](CCCCN)C(=O)N[C@@H](Cc3ccccc3)C(=O)N2)CCCC=CCCC[C@@](C)(C(=O)N[C@@H](C)C(=O)N[C@@H](CCCCN)C(=O)N[C@@H](CCCCN)C(=O)NCC(=O)N[C@@H](CCC(=O)O)C(N)=O)NC(=O)[C@H](CCC(=O)O)NC(=O)CNC1=O` [compound 53] (H-G[S5]GKF[S5]KKKKKFGKA[S5]VGE[S5]AKKGE-NH2; staple 2-6, 16-20), in data set [1], the “Minimum Inhibitory Concentration (MIC) S. aureus” value was >64 µg/mL. The “Minimum Inhibitory Concentration (MIC) A. baumannii” value in data set [2] was 4 µg/mL. The compound also displayed an IC50 at 48 hours in data set [3] of 211 µg/mL (≈ 76.7 µM). In data set [4], the “Minimum Inhibitory Concentration (MIC) E. coli” value worked out at 8 µg/mL. Besides, the “Minimum Inhibitory Concentration (MIC) K. pneumoniae” value in data set [5] stood at 32 µg/mL. Further, in data set [6], the “Minimum Inhibitory Concentration (MIC) P. aeruginosa” value stood at 16 µg/mL.

In the case of `CC(C)[C@@H]1NC(=O)[C@@](C)(NC(=O)[C@H](C)NC(=O)[C@H](CCCCN)NC(=O)CNC(=O)[C@H](Cc2ccccc2)NC(=O)[C@H](CCCCN)NC(=O)[C@H](CCN)NC(=O)[C@H](CCCCN)NC(=O)[C@H](CCCCN)NC(=O)[C@H](CCCCN)NC(=O)[C@]2(C)CCCC=CCCC[C@](C)(NC(=O)CN)C(=O)NCC(=O)N[C@@H](CCCCN)C(=O)N[C@@H](Cc3ccccc3)C(=O)N2)CCCC=CCCC[C@@](C)(C(=O)N[C@@H](C)C(=O)N[C@@H](CCCCN)C(=O)N[C@@H](CCCCN)C(N)=O)NC(=O)[C@H](CCC(=O)O)NC(=O)CNC1=O` [compound 43] (H-G[S5]GKF[S5]KKK[Dab]KFGKA[S5]VGE[S5]AKK-NH2; staple 2-6, 16-20), in data set [1], the “Minimum Inhibitory Concentration (MIC) S. aureus” value was determined as 32 µg/mL. Also, the “Minimum Inhibitory Concentration (MIC) A. baumannii” value in data set [2] came to 2 µg/mL. In data set [3], the IC50 at 48 hours worked out at 127 µg/mL (≈ 50.1 µM). For the same compound, the “Minimum Inhibitory Concentration (MIC) E. coli” value in data set [4] worked out at 4 µg/mL. In addition, the “Minimum Inhibitory Concentration (MIC) K. pneumoniae” value in data set [5] came out at 8 µg/mL. For the same compound, the “Minimum Inhibitory Concentration (MIC) P. aeruginosa” value in data set [6] was determined as 4 µg/mL.

Turning to `CC(C)[C@@H]1NC(=O)[C@@](C)(NC(=O)[C@H](CO)NC(=O)[C@H](CCCCN)NC(=O)CNC(=O)[C@H](Cc2ccccc2)NC(=O)[C@H](CCCCN)NC(=O)[C@H](CCCCN)NC(=O)[C@H](CCCCN)NC(=O)[C@H](CCCCN)NC(=O)[C@H](CN)NC(=O)[C@]2(C)CCCC=CCCC[C@](C)(NC(=O)CN)C(=O)NCC(=O)N[C@@H](CCCCN)C(=O)N[C@@H](Cc3ccccc3)C(=O)N2)CCCC=CCCC[C@@](C)(C(=O)N[C@@H](C)C(=O)N[C@@H](CCCCN)C(=O)N[C@@H](CCCCN)C(N)=O)NC(=O)[C@H](CCC(=O)O)NC(=O)CNC1=O` [compound 87] (H-G[S5]GKF[S5][Dap]KKKKFGKS[S5]VGE[S5]AKK-NH2; staple 2-6, 16-20), the “Minimum Inhibitory Concentration (MIC) S. aureus” value in data set [1] came to 64 µg/mL. Moreover, in data set [2], the “Minimum Inhibitory Concentration (MIC) A. baumannii” value amounted to 1 µg/mL. For the same compound, the IC50 at 48 hours in data set [3] was > 200 µg/mL. Further, the “Minimum Inhibitory Concentration (MIC) E. coli” value in data set [4] worked out at 4 µg/mL. For the same compound, the “Minimum Inhibitory Concentration (MIC) K. pneumoniae” value in data set [5] stood at 64 µg/mL. The “Minimum Inhibitory Concentration (MIC) P. aeruginosa” value in data set [6] turned out to be 2 µg/mL.

The record behind these values is patent publication US20240174723A1, “STAPLED ANTIMICROBIAL PEPTIDES (STAMPS) AND USES THEREOF” (Lytica Therapeutics, Inc., priority 2021, published 2024).
